Experimental data taken from patent US20120220581A1, “IMIDAZO[1,2-b]PYRIDAZINE DERIVATIVES AND THEIR USE AS PDE10 INHIBITORS” (Janssen-Cilag, S.A., priority 2009, published 2012).

How the values were obtained:
[1] = tested on: apomorphine-induced stereotypy in rats; assay: Apomorphine-induced stereotypy in rats (APO); format: in vivo; conditions: Rattus norvegicus, n.d.: found not active at threshold dose 2.5 mg/kg or 10 mg/kg (a)
Method: Apomorphine (1.0 mg/kg, i.v.)-induced stereotypy (compulsive sniffing, licking, chewing) was scored every 5 min over the first hour after injection of apomorphine, following a 1 hour interval pre-treatment with the test compound. The score system was: (3) pronounced, (2) moderate, (1) slight, and (0) absent.

[2] = molecular target: T1, Rat recombinant PDE10A (rPDE10A2) (Rattus norvegicus, UniProt Q9QYJ6); assay: In vitro assay PDE10A (SPA, 3H-cAMP); format: biochemical; conditions: pIC50 corresponds to the −log IC50 expressed in mol/L; read-out: PDE10A2 pIC50 (converted)
T1 construct: inferred from the Ni metal chelate purification; made in house; host or cells: Sf9 insect cells (baculovirus)
T1 sequence (Q9QYJ6 1-794): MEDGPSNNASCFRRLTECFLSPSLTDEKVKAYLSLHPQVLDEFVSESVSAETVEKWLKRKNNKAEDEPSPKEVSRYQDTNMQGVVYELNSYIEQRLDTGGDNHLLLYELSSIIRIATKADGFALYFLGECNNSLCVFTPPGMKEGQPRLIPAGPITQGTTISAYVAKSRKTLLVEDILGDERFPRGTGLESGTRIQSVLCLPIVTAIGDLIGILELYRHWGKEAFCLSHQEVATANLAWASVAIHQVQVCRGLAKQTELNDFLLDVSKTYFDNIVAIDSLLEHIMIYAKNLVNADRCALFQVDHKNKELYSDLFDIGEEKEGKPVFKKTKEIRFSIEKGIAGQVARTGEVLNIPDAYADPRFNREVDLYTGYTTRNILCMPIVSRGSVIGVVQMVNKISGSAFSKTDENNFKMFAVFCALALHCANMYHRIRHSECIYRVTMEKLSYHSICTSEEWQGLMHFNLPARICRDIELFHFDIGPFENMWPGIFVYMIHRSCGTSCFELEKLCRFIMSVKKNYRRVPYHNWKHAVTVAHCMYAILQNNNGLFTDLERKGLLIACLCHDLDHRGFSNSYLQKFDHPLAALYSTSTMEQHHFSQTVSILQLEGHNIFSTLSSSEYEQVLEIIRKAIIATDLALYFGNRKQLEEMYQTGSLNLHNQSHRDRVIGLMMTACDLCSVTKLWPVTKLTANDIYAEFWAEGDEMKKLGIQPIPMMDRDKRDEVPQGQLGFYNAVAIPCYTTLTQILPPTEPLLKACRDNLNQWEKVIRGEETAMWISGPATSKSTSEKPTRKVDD
Method: Rat recombinant PDE10A (rPDE10A2) was expressed in Sf9 cells using a recombinant rPDE10A baculovirus construct. Cells were harvested after 48 h of infection and the rPDE10A protein was purified by metal chelate chromatography on Ni-sepharose 6FF. Tested compounds were dissolved and diluted in 100% DMSO to a concentration 100 fold of the final concentration in the assay. Compound dilutions (0.4 μl) were added in 384 well plates to 20 μl of incubation buffer (50 mM Tris pH 7.8, 8.3 mM MgCl2, 1.7 mM EGTA). 10 μl of rPDE10A enzyme in incubation buffer was added and the reaction was started by addition of 10 μl substrate to a final concentration of 60 nM cAMP and 0.008 μCi ^3H-cAMP. The reaction was incubated for 60 minutes at room temperature. […] After sedimentation of the beads during 30 minutes the radioactivity was measured in a Perkin Elmer Topcount scintillation counter and results were expressed as cpm. For blanc values the enzyme was omitted from the reaction and replaced by incubation buffer. Control values were obtained by addition of a final concentration of 1% DMSO instead of compound. The same assay principle is applied for the measurement of the affinity of the compound for other members of the PDE family with appropriate modifications in incubation buffer, substrate concentration, incubation time and stop solution.

[3] = po, * not soluble, tested orally as a suspension

SMILES | IC50 [2] [nM] | ED50 ([1]; not further tested) [mg/kg] | ED50 [1, 3] [mg/kg]
COCCOc1ccc(-c2c(C)nc3c(-c4cccnc4)ccnn23)cn1 [compound 9, 3-[6-(2-methoxyethoxy)-3-pyridinyl]-2-methyl-8-(3-pyridinyl)-imidazo[1,2-b]pyridazine] | 112 | > 2.5 | 
COCCc1ccc(-c2cnc3c(N4CCOCC4)ccnn23)cn1 [compound 11, 3-[6-(2-methoxyethyl)-3-pyridinyl]-8-(4-morpholinyl)-imidazo[1,2-b]pyridazine] | 195 | > 2.5 | 
COCCc1ccc(-c2c(OC)nc3c(N4CCOCC4)ccnn23)cn1 [compound 12, 2-methoxy-3-[6-(2-methoxyethyl)-3-pyridinyl]-8-(4-morpholinyl)-imidazo[1,2-b]pyridazine] | 224 | > 2.5 | 
COCCc1ccc(-c2c(C3CC3)nc3c(N4CCOCC4)cc(C)nn23)cn1 [compound 15, 2-cyclopropyl-3-[6-(2-methoxyethyl)-3-pyridinyl]-6-methyl-8-(4-morpholinyl)-imidazo[1,2-b]pyridazine] | 302 |  | > 2.5
CCOCc1ccc(-c2c(C)nc3c(N4CCOCC4)ccnn23)cn1 [compound 17, 3-[6-(ethoxymethyl)-3-pyridinyl]-2-methyl-8-(4-morpholinyl)-imidazo[1,2-b]pyridazine] | 55 |  | > 2.5
COCCc1ccc(-c2c(C)nc3c(-c4ccncc4)ccnn23)cn1 [compound 20, 3-[6-(2-methoxyethyl)-3-pyridinyl]-2-methyl-8-(4-pyridinyl)-imidazo[1,2-b]pyridazine] | 27.5 | > 2.5 | 
COCCc1ccc(-c2c(C)nc3c(N4CCOCC4)cc(C)nn23)cn1 [compound 23, 3-[6-(2-methoxyethyl)-3-pyridinyl]-2,6-dimethyl-8-(4-morpholinyl)-imidazo[1,2-b]pyridazine] | 112 | > 2.5 | 
COCCc1ccc(-c2c(C)nc3c(-c4ccncc4)cc(C)nn23)cn1 [compound 24, 3-[6-(2-methoxyethyl)-3-pyridinyl]-2,6-dimethyl-8-(4-pyridinyl)-imidazo[1,2-b]pyridazine] | 79.4 | > 2.5 | 
Cc1ccc(-c2c(C)nc3c(N4CCOCC4)ccnn23)cn1 [compound 39, 2-methyl-3-(6-methyl-3-pyridinyl)-8-(4-morpholinyl)-imidazo[1,2-b]pyridazine] | 70.8 | > 2.5 | 
COCCOc1cncc(-c2c(C)nc3c(N4CCOCC4)cc(C4CC4)nn23)c1 [compound 42, 6-cyclopropyl-3-[5-(2-methoxyethoxy)-3-pyridinyl]-2-methyl-8-(4-morpholinyl)-imidazo[1,2-b]pyridazine] | 93.3 | > 2.5 | 
COC(C)(C)Cc1ccc(-c2c(C)nc3c(N4CCOCC4)cc(C4CC4)nn23)cn1 [compound 43, 6-cyclopropyl-3-[6-(2-methoxy-2-methylpropyl)-3-pyridinyl]-2-methyl-8-(4-morpholinyl)-imidazo[1,2-b]pyridazine] | 191 | > 2.5 | 

The next lines start with results.

IC50 [2] [nM] | SMILES | ED50 ([1]; not further tested) [mg/kg] | ED50 [1, 3] [mg/kg]
46.8 | COCCCc1ccc(-c2c(C)nc3c(N4CCOCC4)ccnn23)cn1 [compound 2, 3-[6-(3-methoxypropyl)-3-pyridinyl]-2-methyl-8-(4-morpholinyl)-imidazo[1,2-b]pyridazine] | > 2.5 | 
40.7 | COCC(C)(C)c1ccc(-c2c(C)nc3c(N4CCOCC4)ccnn23)cn1 [compound 4, 3-[6-(2-methoxy-1,1-dimethylethyl)-3-pyridinyl]-2-methyl-8-(4-morpholinyl)-imidazo[1,2-b]pyridazine] | > 2.5 | 
19.1 | CCOC(C)(C)c1ccc(-c2c(C)nc3c(N4CCOCC4)ccnn23)cn1 [compound 5, 3-[6-(1-ethoxy-1-methylethyl)-3-pyridinyl]-2-methyl-8-(4-morpholinyl)-imidazo[1,2-b]pyridazine] | > 2.5 | 
23.4 | COC(C)(C)c1ccc(-c2c(C)nc3c(N4CCOCC4)ccnn23)cn1 [compound 6, 3-[6-(1-methoxy-1-methylethyl)-3-pyridinyl]-2-methyl-8-(4-morpholinyl)-imidazo[1,2-b]pyridazine] | > 2.5 | 
162 | COCCOc1ncc(-c2c(C)nc3c(-c4ccncc4)ccnn23)cc1C [compound 8, 3-[6-(2-methoxyethoxy)-5-methyl-3-pyridinyl]-2-methyl-8-(4-pyridinyl)-imidazo[1,2-b]pyridazine] | > 2.5 | 
195 | COCCc1ccc(-c2c(C)nc3c(N4CCOCC4)cc(C4CC4)nn23)cn1 [compound 13, 6-cyclopropyl-3-[6-(2-methoxyethyl)-3-pyridinyl]-2-methyl-8-(4-morpholinyl)-imidazo[1,2-b]pyridazine] | > 2.5 | 
120 | COCCc1ccc(-c2c(C)nc3c(-c4ccncc4)cc(C4CC4)nn23)cn1 [compound 14, 6-cyclopropyl-3-[6-(2-methoxyethyl)-3-pyridinyl]-2-methyl-8-(4-pyridinyl)-imidazo[1,2-b]pyridazine] | > 2.5 | 
33.9 | CCOCCc1ccc(-c2c(C)nc3c(N4CCOCC4)ccnn23)cn1 [compound 25, 3-[6-(2-ethoxyethyl)-3-pyridinyl]-2-methyl-8-(4-morpholinyl)-imidazo[1,2-b]pyridazine] |  | > 2.5
30.9 | COCCc1cc(-c2c(C)nc3c(N4CCOCC4)ccnn23)ccn1 [compound 26, 3-[2-(2-methoxyethyl)-4-pyridinyl]-2-methyl-8-(4-morpholinyl)-imidazo[1,2-b]pyridazine] | > 2.5 | 
31.6 | Cc1nc2c(N3CCOCC3)ccnn2c1-c1ccc(C2CCOCC2)nc1 [compound 27, 2-methyl-8-(4-morpholinyl)-3-[6-(tetrahydro-2H-pyran-4-yl)-3-pyridinyl]-imidazo[1,2-b]pyridazine] | > 2.5 | 
117 | CO[C@@H]1CCN(c2ccc(-c3c(C)nc4c(N5CCOCC5)ccnn34)cn2)C1 [compound 34, 3-[6-[(3R)-3-methoxy-1-pyrrolidinyl]-3-pyridinyl]-2-methyl-8-(4-morpholinyl)-imidazo[1,2-b]pyridazine] | > 2.5 | 
28.8 | COC(C)(C)Cn1cc(-c2c(C3CC3)nc3c(N4CCOCC4)ccnn23)cn1 [compound 38, 2-cyclopropyl-3-[1-(2-methoxy-2-methylpropyl)-1H-pyrazol-4-yl]-8-(4-morpholinyl)-imidazo[1,2-b]pyridazine] | > 2.5 | 
117 | COC(C)(C)Cc1ccc(-c2c(C)nc3c(-c4ccncc4)cc(C4CC4)nn23)cn1 [compound 40, 6-cyclopropyl-3-[6-(2-methoxy-2-methylpropyl)-3-pyridinyl]-2-methyl-8-(4-pyridinyl)-imidazo[1,2-b]pyridazine] | > 2.5 | 
407 | COCCOc1ccc(-c2c(C)nc3c(N4CCOCC4)cc(C4CC4)nn23)cn1 [compound 41, 6-cyclopropyl-3-[6-(2-methoxyethoxy)-3-pyridinyl]-2-methyl-8-(4-morpholinyl)-imidazo[1,2-b]pyridazine] | > 2.5 | 
45.7 | COCCOc1ccc(-c2c(C3CC3)nc3c(-c4ccncc4)ccnn23)cn1 [compound 44, 2-cyclopropyl-3-[6-(2-methoxyethoxy)-3-pyridinyl]-8-(4-pyridinyl)-imidazo[1,2-b]pyridazine] | > 2.5 | 
